Test [1] addresses T1, hFXR (Homo sapiens, UniProt Q96RI1).
T1 construct: expressed in transfected cells; host or cells: CV-1 cells
T1 sequence (Q96RI1 1-486): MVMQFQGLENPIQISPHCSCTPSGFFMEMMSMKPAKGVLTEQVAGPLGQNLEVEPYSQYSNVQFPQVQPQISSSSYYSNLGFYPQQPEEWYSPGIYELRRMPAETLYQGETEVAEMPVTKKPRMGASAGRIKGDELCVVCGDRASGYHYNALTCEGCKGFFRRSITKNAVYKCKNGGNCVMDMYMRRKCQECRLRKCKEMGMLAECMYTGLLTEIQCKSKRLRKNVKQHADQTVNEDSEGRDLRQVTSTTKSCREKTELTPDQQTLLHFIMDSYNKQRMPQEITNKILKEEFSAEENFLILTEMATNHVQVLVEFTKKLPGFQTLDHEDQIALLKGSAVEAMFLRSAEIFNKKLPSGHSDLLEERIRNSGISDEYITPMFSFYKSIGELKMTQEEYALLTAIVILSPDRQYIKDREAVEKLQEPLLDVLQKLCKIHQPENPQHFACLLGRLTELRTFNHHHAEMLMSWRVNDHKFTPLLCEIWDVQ
T1 sequence (P19793 1-462 partner): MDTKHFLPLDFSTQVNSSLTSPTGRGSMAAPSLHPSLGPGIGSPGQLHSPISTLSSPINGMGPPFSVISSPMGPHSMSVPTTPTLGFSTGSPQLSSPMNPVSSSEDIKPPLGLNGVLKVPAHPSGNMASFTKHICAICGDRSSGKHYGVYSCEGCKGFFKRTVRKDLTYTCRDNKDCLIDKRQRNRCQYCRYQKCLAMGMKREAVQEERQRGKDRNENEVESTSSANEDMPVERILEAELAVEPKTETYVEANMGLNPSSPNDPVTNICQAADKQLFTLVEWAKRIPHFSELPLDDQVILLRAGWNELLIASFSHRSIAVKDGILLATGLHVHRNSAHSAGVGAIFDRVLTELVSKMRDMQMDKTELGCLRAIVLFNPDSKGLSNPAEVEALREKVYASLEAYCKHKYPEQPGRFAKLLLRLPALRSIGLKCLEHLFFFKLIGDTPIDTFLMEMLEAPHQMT
Kind of test: In Vitro FXR Assay (TK), luciferase reporter in transfected CV-1 cells. Format: cell-based. The conditions noted are these: CV-1 cells transfected with hFXR, hRXR, TK-ECRE-luc; 18 hrs incubation; luminescence; compounds with a maximum efficacy of <25% of the Fexaramine control classified as '+'. On the procedure: Example B-2: In Vitro FXR Assay (TK)
CV-1 cells were seeded at a density of 2,000,000 cells in a T175 flask with DMEM+10% charcoal double-stripped FBS and incubated at 37° C. in 5% CO2 for 18 h (O/N).
After 18 h of incubation, the medium in the T175 flask was changed with fresh DMEM+10% charcoal super-stripped serum. In a polypropylene tube, 2500 μL OptiMEM (Life Technologies, Cat #31985-062) was combined with expression plasmids for hFXR, hRXR, TK-ECRE-luc and pCMX-YFP. The tube was then briefly vortexed and incubated at room temperature for 5 minutes. Transfection reagent (X-tremeGENE HP from Roche, Cat #06 366 236 001) was added to the OptiMEM/plasmid mixture vortexed and incubated at room temperature for 20 minutes. Following incubation, the transfection reagent/DNA mixture complex was added to cells in the T175 flask and the cells were incubated at 37° C. in 5% CO2 for 18 h (O/N).
Compounds were serially diluted in DMSO and added to transfected CV-1 cells. The cells were then incubated for 18 hrs. The next day cells were lysed and examined for luminescence.
(In general: A reporter such as luciferase makes a cellular process visible.)

For test [2], the target named is T1, hFXR. Nature of the test: In Vitro FXR Assay (PGL3), luciferase reporter in transfected CV-1 cells. Format: cell-based. The conditions noted are these: CV-1 cells transfected with hFXR, hRXR, PGL3-ECRE*6-luc; 18 hrs incubation; luminescence. As for the experimental part:
Example B-1: In Vitro FXR Assay (PGL3)
CV-1 cells were seeded at a density of 2,000,000 cells in a T175 flask with DMEM+10% charcoal double-stripped FBS and incubated at 37° C. in a 5% CO2 for 18 h (O/N).
After 18 h of incubation, the medium in the T175 flask was changed with fresh DMEM+10% charcoal super-stripped serum.
To prepare the transfection reaction mixture, the transfection reagent (X-tremeGENE HP from Roche, Cat #06 366 236 001) was added in to a 1.5 mL microcentrifuge tube labelled “A” at a ratio of 1:3 (DNA in g: transfection reagent in μL). OptiMEM medium (Life Technologies, Cat #31985-062) was added accordingly to provide a total volume of 1 mL. The transfection reaction mixture was then briefly vortexed and incubated at room temperature for 5 minutes.
In a separate 1.5 mL microcentrifuge tube labelled “B”, 100 μL OptiMEM and plasmids XPD90Gal pCMXhFXRfl, pCMXhRXRfl+PGL3-ECRE*6-luc+CMX-YFP in the ratio 2 g: 2 g:18 g:3 g were added. This microcentrifuge tube “B” was then briefly vortexed and incubated at room temperature for 5 minutes.
The total volume in tube labelled “A” was then transferred in to tube labelled “B.” The mixture was then briefly vortexed and the transfection:DNA complex was then incubated for about 15-20 minutes at room temperature.
Following incubation, the transfection reagent/DNA mixture complex was then added to cells in the T175 flask and the cells were incubated at […] (O/N) at 37° C. in 5% CO2.
In a 96 well plate, a half logarithmic serial dilution was prepared. OptiMEM was used as the diluent. Using any of one of the compounds described herein, a compound stock solution of 10 mM was prepared. An initial 1:100 dilution was made into the first well for a final concentration of 100 μM. The final concentrations in the 96-well plate was prepared by using a multichannel pipette to transfer 5 μL of the diluted compound to 384-well plate in quadruplicate.
Cells in T175 flask were trypsinized and cells were resuspending in 40 mL phenol red free DMEM+10% charcoal super-stripped FBS. Typically, one T175 flask was sufficient to seed two 384 well plates. CV-1 cells were seeded at 45 μL cell suspension/well using a multichannel pipet or a 384 multidrop dispenser. The cells were then incubated for 18 hrs, overnight.
After removing the plates from the incubator, the medium was flicked out of plate and 384 well plate was turned upside down onto paper towel. The remaining medium was gently tapped out. 15 μL lysis buffer was then added to each well using a multichannel pipet or a 384 well multi-drop dispenser. After incubation for 10 minutes at room temperature on shaker, 30 μL Luciferase buffer was added to each well. Luminescence counts were taken immediately using the Perkin Elmer Envision.
The ability of the compounds disclosed herein to […] FXR activity was quantified and the respective EC50 value was determined. Fex=fexaramine.

Consider five compounds from patent US11214538B2, “Farnesoid X receptor agonists and uses thereof” (Metacrine, Inc., priority 2015, dated 2022).

The term EC50 denotes the midpoint of the concentration-response curve. Read a high EC50 as a less potent agent.

Molecules are shown by their SMILES. A value given as a limit tells only on which side of the number the result lay.

Turning to `CN(C)C(=O)/C=C/c1cccc(N(Cc2ccc(-c3ccc(N(C)C)cc3)cc2)C(=O)C2CCCCC2)c1` [Compound 13, (E)-N-(3-(3-(Dimethylamino)-3-oxoprop-1-en-1-yl)phenyl)-N-((4′-(dimethylamino)-[1,1′-biphenyl]-4-yl)methyl)cyclohexanecarboxamide], at hFXR [1], the EC50 is at most 3 µM. The “Cmpd/Fex (ratio of the EC50 for the test compound relative to the EC50 of the Fexaramine control)” value on hFXR [2] was “+ (‘+’ means Cmpd/Fex >100)”.

Regarding `CN(C)c1ccc(-c2ccc(CN(C(=O)C3CCCCC3)c3cccc(/C=C/c4ncco4)c3)cc2)cc1` [Compound 14, (E)-N-((4′-(Dimethylamino)-[1,1′-biphenyl]-4-yl)methyl)-N-(3-(2-(oxazol-2-yl)vinyl)phenyl)cyclohexanecarboxamide], on hFXR [1], the EC50 is at most 3 µM. Moreover, the “Cmpd/Fex (ratio of the EC50 for the test compound relative to the EC50 of the Fexaramine control)” value at hFXR [2] is recorded as “+++ (‘+++’ means Cmpd/Fex <10)”.

On hFXR [1], `O=C(C1CCCCC1)N(Cc1ccc(-c2ccc(F)cc2)cc1)c1cccc(-c2ccccc2)c1` [Compound 15, N-([1,1′-Biphenyl]-3-yl)-N-((4′-fluoro-[1,1′-biphenyl]-4-yl)methyl)cyclohexanecarboxamide] registered an EC50 of at most 3 µM. The “Cmpd/Fex (ratio of the EC50 for the test compound relative to the EC50 of the Fexaramine control)” value on hFXR [2] is listed as “+ (‘+’ means Cmpd/Fex >100)”.

Take `C/C=C/c1cccc(N(Cc2ccc(-c3ccc(N(C)C)cc3)cc2)C(=O)C2CCCCC2)c1` [Compound 16, (E)-N-((4′-(Dimethylamino)-[1,1′-biphenyl]-4-yl)methyl)-N-(3-(prop-1-en-1-yl)phenyl)cyclohexanecarboxamide]: the EC50 at hFXR [1] lay within 3 to 10 µM. Moreover, the “Cmpd/Fex (ratio of the EC50 for the test compound relative to the EC50 of the Fexaramine control)” value on hFXR [2] is on record as “++ (‘++’ means Cmpd/Fex >10 & <100)”.

`CN(C)c1ccc(-c2ccc(CN(C(=O)C3CCCCC3)c3cccc(-c4ccccc4)c3)cc2)cc1` [Compound 18, N-([1,1′-Biphenyl]-3-yl)-N-((4′-(dimethylamino)-[1,1′-biphenyl]-4-yl)methyl)cyclohexanecarboxamide] came in with an EC50 on hFXR [1] of 3 to 10 µM. For the same compound, the “Cmpd/Fex (ratio of the EC50 for the test compound relative to the EC50 of the Fexaramine control)” value on hFXR [2] is “+ (‘+’ means Cmpd/Fex >100)”.
